Patent publication US20220332750A1, “ADENOSINE COMPOUND, ITS PHARMACEUTICALLY ACCEPTABLE SALT OR ITS STEREOISOMER AND USE THEREOF” (ACADEMY OF MILITARY MEDICAL SCIENCES, priority 2019, published 2022)

Assays:
[1] = target: T1, (human) A2A adenosine receptor (Homo sapiens, UniProt P29274); assay: Radioligand binding test ([3H]-CGS21680 displacement); conditions: for Ki: calculated from IC50 by Cheng-Prusoff equation, [S] 25 nM, Km 22 nM; for IC50: hA2A HEK-293 cell membrane, [3H]-CGS21680 25 nM, 25° C. 90 minutes
T1 construct: purchased PerkinElmer Research Products (Boston, Mass.); host or cells: HEK-293 cell membranes, stably transfected
Procedure: [3H]-CGS21680 (2-[p-(2-carboxyethyl)phenylethylamino]-5′-N-ethylcarboxamido-adenosine, [carboxy-1-ethyl-3H(N)]—; 250 μCi): purchased from PerkinElmer Research Products (Boston, Mass.);
The cell membrane stably transfected with (human) A2A adenosine receptor was prepared in HEK-293 cells, and the cell membrane was obtained from PerkinElmer Research Products (Boston, Mass.);
CGS 21680 (2-[p-(2-carboxyethyl)phenylethylamino]-5′-N-ethylcarboxamidoadenosine) was purchased from Selleck (Shanghai, CN);
The A2A adenosine receptors used were all expressed in the cell membrane. Each compound was continuously diluted 3 times with DMSO (Solarbio, D8371-250 ml) to generate compound source plates with 10 different concentrations (10 μM, 3.3 μM, 1.1 μM, 0.37 μM, 0.12 μM, 0.0412 μM, 0.0137 μM, 0.0046 μM, 0.0015 μM, 0.0005 μM), 250 nL of compounds were added to 384-well Opti-plate, sealed with parafilm; 1 mL of assay buffer (containing 50 mM Tris-HCl, pH 7.4, 10 mM MgCl2, 1 mM EDTA, 1 μg/mL adenosine deaminase) was added to 20 U hA2A HEK-293 cell membrane for dilution, 0.75 μCi [3H]-CGS21680 (final 25 nM) was added to the diluted cell membrane and mixed well; 50 μL of the prepared cell membrane dilution was transferred to the 384-well Opti-plate containing fresh compounds and incubated at 25° C. for 90 minutes; 100 μL of 0.5% polyethyleneimine solution (PEI) was added to UNIFILTER-96 GF/B filter plate, and soaked at 4° C. for 90 minutes, then the UNIFILTER-96 GF/B filter plate was washed twice with 500 μL of washing buffer per well (washing buffer contained 50 mM Tris-HCl pH 7.4, 154 mM NaCl) which was transferred by Cell Harvester; then, the mixture system in the Opti-plate was transferred to the cleaned UNIFILTER-96 GF/B filter plate, and then the UNIFILTER-96 GF/B filter plate was washed 9 times with 500 μL of washing buffer per well (washing buffer contained 50 mM Tris-HCl, pH 7.4, 154 mM NaCl), and incubated for 3 minutes in a 37° C. incubator; 40 μL of ULTIMA GOLD scintillation fluid (Perkin Elmer, Cat #77-16061) was added to each well, MicroBeta liquid scintillation counter (PerkinElmer) was used to read CPM (count per minute) value. The specific binding percentage of [3H]CGS21680 was calculated according to the CPM value, % specific binding of [3H]CGS21680=(CPMsample−CPMLow Control)/(CPMHigh Control−CPMLow Control)*100, wherein High Control was 0.5% DMSO, Low Control was 100 μM CGS21680. According to the compound concentration and the specific binding percentage of [3H]CGS21680, curve fitting was performed to calculate IC50 value.
The binding inhibition constant (Ki) value was calculated from the IC50 value according to the Cheng-Prusoff equation, Ki=IC50/(1+[S]/Km), wherein [S] was radioligand concentration (25 nM), and Km was human A2AAR dissociation constant of [3H]CGS21680 (22 nM).

[2] = target: human adenosine receptor A2A (hADORA2A-HEK293 cells) (Homo sapiens, UniProt P29274); assay: cAMP test of A2A adenosine receptor; format: cell-based; conditions: LANCE Ultra cAMP kit
Description: DMEM/F12, G418, Penicillin-Streptomycin, Versene solution, HEPES, Hank's buffer saline aqueous solution, PBS (pH 7.4, 1×, sterile), FBS, 7.5% BSA stabilizer, Rolipram, NECA, were purchased from Gibico, Hyclone and Sigma, respectively;
LANCE® Ultra cAMP kit (containing Eu-cAMP tracer, Ulight-anti-cAMP reagent, cAMP detection buffer) and hADORA2A-HEK293 cells were purchased from PerkinElmer Research Products (Boston, Mass.);
The cells stably expressing human adenosine receptor A2A (hADORA2A-HEK293 cells) were cultured in DMEM/F12 medium containing 10% FBS, 1× Penicillin-Streptomycin and 400 μg/ml G418 in the environment of 37° C. and 5% CO2. Before the experiment, the cells were digested with Versene solution. […] EnVison microplate reader (EnVision multimode plate reader, PerkinElmer) was used to determine the level of cyclic adenosine monophosphate in the final solution (λex=320 nm, λem=665 nm & 615 nm). The EC50 (nM) value that stimulated the production level of cyclic adenosine monophosphate when the test compound interacted with the A2A adenosine receptor was calculated. The A2A receptor agonist titer of the compound was expressed as the EC50 (nM) value that stimulated the production level of cyclic adenosine monophosphate when the compound interacted with the A2A adenosine receptor. […]

T1 sequence (P29274 whole entry): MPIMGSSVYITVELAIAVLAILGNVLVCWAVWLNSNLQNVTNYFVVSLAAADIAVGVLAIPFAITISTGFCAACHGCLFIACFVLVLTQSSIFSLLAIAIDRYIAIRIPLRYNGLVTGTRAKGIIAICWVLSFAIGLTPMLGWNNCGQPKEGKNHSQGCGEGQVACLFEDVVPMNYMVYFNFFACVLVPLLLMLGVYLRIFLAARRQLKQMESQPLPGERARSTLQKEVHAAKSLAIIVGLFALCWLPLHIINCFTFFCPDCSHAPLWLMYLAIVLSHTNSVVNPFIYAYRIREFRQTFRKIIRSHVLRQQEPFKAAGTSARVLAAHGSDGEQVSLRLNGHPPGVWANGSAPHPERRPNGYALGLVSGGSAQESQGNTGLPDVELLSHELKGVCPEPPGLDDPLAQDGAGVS
Chain of human adenosine receptor A2A (hADORA2A-HEK293 cells) (P29274 whole entry): as above

Ki [1] [nM] | IC50 [1] [nM] | melting point [°C] | EC50 [2] [nM] | Structure (SMILES)
778 | 1660 | 230 | – | Nc1nc(-c2ccc(NC(=O)Nc3cccnc3)cc2)nc2c1ncn2[C@@H]1O[C@H](CO)[C@@H](O)[C@H]1O [Compound 1, 1-{4-{6-amino-9-[(2R,3R,4S,5R)-3,4-dihydroxy-5-(hydroxymethyl)tetrahydrofuran-2-yl]-9H-purin-2-yl}phenyl}-3-(pyridin-3-yl)urea]
16.4 | 35 | 174 | 228 | Nc1nc(-c2ccc(NC(=O)Nc3ccc(CO)cc3)cc2)nc2c1ncn2[C@@H]1O[C@H](CO)[C@@H](O)[C@H]1O [Compound 2, 1-{4-{6-amino-9-[(2R,3R,4S,5R)-3,4-dihydroxy-5-(hydroxymethyl)tetrahydrofuran-2-yl]-9H-purin-2-yl}phenyl}-3-[4-(hydroxymethyl)phenyl]urea]
15.9 | 34 | 174 | – | Nc1nc(-c2ccc(NC(=O)NC3CC3)cc2)nc2c1ncn2[C@@H]1O[C@H](CO)[C@@H](O)[C@H]1O [Compound 3, 1-{4-{6-amino-9-[(2R,3R,4S,5R)-3,4-dihydroxy-5-(hydroxymethyl)tetrahydrofuran-2-yl]-9H-purin-2-yl}phenyl}-3-cyclopropylurea]
